From article PMC9916762, “Impact of Hydrophobic Chains in Five-Coordinate Glucoconjugate Pt(II) Anticancer Agents” (International Journal of Molecular Sciences, 2023)

Tested on: immortalized murine fibroblasts (BALB/c-3T3)
Conditions: read-out: IC50 BALB-c/3T3; 48 h incubation, MTT
Experimental: To evaluate their biological activity, the effects of the four complexes on cell viability were evaluated in eukaryotic cell models. For this purpose, experiments were performed on two cancer cell lines, i.e., human epidermoid carcinoma cells (A431) and murine fibroblast BALB/c-3T3 transformed with the SV40 virus (SVT2), and on two non-cancer cell lines, i.e., immortalized human keratinocytes (HaCaT) and immortalized murine fibroblasts (BALB/c-3T3). Cells were incubated with increasing concentrations of 1,Me-Me, 1,Oct-Me, 1,Me-Oct, and 1,Oct-Oct (from 0.1 to 50 μM). After 48 h of incubation, cytotoxicity was determined by MTT assay and cell survival was expressed as the percentage of viable cells in the presence of each complex compared with that of the untreated cells (Figure S19).
The immortalized human keratinocytes (HaCaT) were from Innoprot. Human The A431 epidermoid carcinoma, murine BALB/c-3T3, and SVT2 fibroblasts were from ATCC. Cells were cultured in Dulbecco’s modified Eagle’s medium (DMEM) (Sigma-Aldrich, St. Louis, MO, USA), supplemented with 10% foetal bovine serum (HyClone), 2 mM L-glutamine, and antibiotics, all from Sigma-Aldrich, under a 5% CO2-humidified atmosphere at 37 °C. To test the effects of the complexes on cell viability, cells were seeded at a density of 2.5 × 10^3 cells per well in 96-well plates. After 24 h, cells were incubated with increasing concentrations (from 0.1 to 50 μM) of the four complexes. After 48 h, cell viability was assessed by the MTT assay, as previously reported in [43]. Cell viability was expressed as the percentage of viable cells in the presence of the Pt complexes compared to the controls, represented by untreated cells and cells supplemented with identical volumes of DMSO. Each sample was tested in three independent analyses, each carried out in triplicate.

“Platinum(1+), (2,9-dimethyl-1,10-phenanthroline- N1,N10)(η2-ethene)methyl[1,3-dihydro-1,3-dimethyl-4-[1-[2,3,4,6-tetrakis-O-(acetyl)-β-D-glucopyranosyl]-1H-1,2,3-triazol-4-yl]-2H-imidazol-2-ylidene], 1,1,1-trifluoromethanesulfonate [1-Me,Me]” gave an IC50 of 26 ± 1 µM.
